Data taken from patent US6492365B1, “Microsomal triglyceride transfer protein” (Bristol-Myers Squibb Company, priority 1992, dated 2002).
Where a name gives a salt, the structure may show the parent alone.

Target: T1, bovine MTP (Bos taurus, UniProt P55156)
T1 construct: with about 50-200 ng purified MTP in the well of a 96-well plate; from tissue; host or cells: bovine liver
T1 sequence (P55156 12-887): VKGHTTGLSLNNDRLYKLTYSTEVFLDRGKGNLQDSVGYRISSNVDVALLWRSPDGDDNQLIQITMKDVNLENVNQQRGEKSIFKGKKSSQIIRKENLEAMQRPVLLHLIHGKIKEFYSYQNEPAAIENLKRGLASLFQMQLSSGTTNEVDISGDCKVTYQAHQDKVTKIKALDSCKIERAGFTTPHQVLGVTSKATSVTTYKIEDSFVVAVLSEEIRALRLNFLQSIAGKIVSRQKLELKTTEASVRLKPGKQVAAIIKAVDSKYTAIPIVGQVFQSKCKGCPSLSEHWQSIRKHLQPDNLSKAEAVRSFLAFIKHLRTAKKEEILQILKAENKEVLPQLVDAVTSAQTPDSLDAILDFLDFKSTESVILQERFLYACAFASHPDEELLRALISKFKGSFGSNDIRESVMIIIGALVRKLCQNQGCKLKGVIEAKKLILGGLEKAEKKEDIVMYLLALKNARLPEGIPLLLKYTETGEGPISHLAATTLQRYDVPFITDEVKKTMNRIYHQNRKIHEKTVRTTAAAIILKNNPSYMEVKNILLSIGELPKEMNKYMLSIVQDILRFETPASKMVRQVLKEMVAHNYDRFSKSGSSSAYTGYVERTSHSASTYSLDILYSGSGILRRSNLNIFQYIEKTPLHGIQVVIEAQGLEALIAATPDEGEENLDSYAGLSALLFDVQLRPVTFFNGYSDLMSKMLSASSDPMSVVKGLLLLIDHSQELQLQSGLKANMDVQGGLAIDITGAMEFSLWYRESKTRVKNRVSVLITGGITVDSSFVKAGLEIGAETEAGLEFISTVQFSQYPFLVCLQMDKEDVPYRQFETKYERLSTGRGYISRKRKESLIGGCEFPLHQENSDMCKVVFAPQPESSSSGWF
T1 sequence (P05307 21-510 partner): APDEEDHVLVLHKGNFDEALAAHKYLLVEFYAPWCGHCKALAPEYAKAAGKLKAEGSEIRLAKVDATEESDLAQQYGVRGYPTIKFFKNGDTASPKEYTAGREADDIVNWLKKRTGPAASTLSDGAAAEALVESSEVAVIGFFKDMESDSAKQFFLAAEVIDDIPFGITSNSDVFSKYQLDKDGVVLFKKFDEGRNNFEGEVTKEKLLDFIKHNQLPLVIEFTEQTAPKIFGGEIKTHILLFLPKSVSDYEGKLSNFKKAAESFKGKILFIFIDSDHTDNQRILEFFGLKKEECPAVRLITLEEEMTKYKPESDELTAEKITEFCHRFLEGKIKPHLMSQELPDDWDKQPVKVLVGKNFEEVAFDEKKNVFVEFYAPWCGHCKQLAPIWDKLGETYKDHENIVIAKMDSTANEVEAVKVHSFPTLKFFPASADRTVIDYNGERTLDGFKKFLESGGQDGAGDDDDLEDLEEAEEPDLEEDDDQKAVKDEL
Test: MTP-catalyzed transfer of radiolabeled TG from donor HDL to acceptor LDL (primary screen)
Format: biochemical
Settings: result in words
Protocol: In this screen, the rate of detectably labeled lipid (for example, NMR, ESR, radio or fluorescently labeled TG, CE, or PC) transfer from donor particles (e.g., donor membranes, vesicles, or lipoproteins) to acceptor particles (e.g., acceptor membranes, vesicles, or lipoproteins) in the presence of MTP is measured. A decrease in the observed transfer rate in the presence of an inhibitor of MTP (e.g., contained in a natural products extract or known compounds) may be used as an assay to identify and isolate inhibitors of MTP function. […]
In a typical 150 μL assay, transfer activity is determined by measuring the transfer of radiolabeled TG from [^3H]-HDL (5 μg cholesterol) donor particles to LDL (50 μg cholesterol) acceptor particles at 37° C. for three hours in 15 mM Tris, pH 7.4, 125 mM MOPS, 30 mM Na acetate, 160 mM NaCl, 2.5 mM Na2 EDTA, 0.02% NaN3, 0.5% BSA with about 50-200 ng purified MTP in the well of a 96-well plate. […] The enzyme activity is based on the percentage of TG transfer and is calculated by the following equation: [formula] […]
Using the method outlined in Example 5, MTP inhibitor compounds A and B were identified. The assay measured the bovine MTP-catalyzed rate of transport of radiolabeled TG from donor HDL to acceptor LDL. […]

O=C1c2ccccc2CN1C1CCN(CCC(c2ccccc2)c2ccccc2)CC1 [compound A, 2-[1-(3,3-diphenylpropyl)-4-piperdinyl]-2,3-dihydro-3-oxo-1H-isoindole hydrochloride]
inhibition of MTP-catalyzed transport of 3H-TG from HDL to LDL: inhibited

COc1ccccc1N1CCN(CC2CC(=O)c3ccc(F)cc3C2)CC1 (centres unmarked) [compound B, 1-[3-(6-fluoro-1-tetralanyl)methyl]-4-O-methoxyphenyl piperazine]
inhibition of MTP-catalyzed transport of 3H-TG from HDL to LDL: MTP inhibitor
